Experimental data published in PubChem BioAssay (NCI).
Where “and” joins values, the source holds several entries; their conditions need not be identical. Identical values can stand only once.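 Test compounds were applied to cells in 96-well plates for 48 hours at 5 doses. Here, GI50 denotes the concentration required for 50% inhibition of growth. TGI: concentration producing complete growth inhibition.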

Columns and labels:
Experiment in all cases: DTP human tumour cell line panel, 48 h
[1] = test system: A549 NSCLC
[2] = test system: M14 melanoma
[3] = test system: MDA-MB-435
[4] = test system: MOLT-4 leukemia
[5] = test system: SF-295 CNS
[6] = test system: SK-MEL-2 melanoma
[7] = test system: SN12C renal
[8] = test system: TK-10 renal
[9] = test system: CCRF-CEM leukemia
[10] = test system: PC-3 prostate

`O=S(=O)(NCCNc1nccc(-c2c(-c3ccc(F)c(O)c3)nc3sccn23)n1)c1ccc(F)cc1` showed a GI50 [1] of 3.63 µM, a TGI [1] of 58 µM and a GI50 [2] of 0.364 µM. For the same compound, the TGI [2] was 16.5 µM, the GI50 [3] was 0.824 µM and the TGI [3] was 4.99 µM. The GI50 [4] was 2.71 µM, the TGI [4] was 12.9 µM and the GI50 [5] was 3.41 µM. The TGI [5] was 39.7 µM, the GI50 [6] was 1.87 µM and the TGI [6] was 12.9 µM. For the same compound, the GI50 [7] was 2.83 µM, the TGI [7] was 71.5 µM and the GI50 [8] was 16.2 µM. For the same compound, the TGI [8] was 96.7 µM.
In the case of `Nc1ccccc1C#C/C=C\C#Cc1ccc(OCCCNC(=O)c2cc3ccccc3[nH]2)cc1`, the GI50 [1] is reported as 11.6 µM, the TGI [1] is reported as 31.3 µM and the GI50 [3] is reported as 20.6 µM. The TGI [3] was greater than 100 µM, the GI50 [4] was 49.4 µM and the TGI [4] was greater than 100 µM. The GI50 [5] was 12.1 µM, the TGI [5] was 47.1 µM and the GI50 [6] was greater than 100 µM. The TGI [6] was greater than 100 µM, the GI50 [7] was 7.32 µM and the TGI [7] was 39.8 µM. It also gave a GI50 [8] of 17.3 µM and a TGI [8] of 53.5 µM.
Compound `COc1ccc(-c2cs/c(=N\N=C\c3ccc(O)cc3O)n2/N=C/c2ccc(O)cc2O)cc1` has a GI50 [1] of 1.89 µM, a TGI [1] of 4.62 µM and a GI50 [2] of 1.63 µM. The TGI [2] was 3.21 µM, the GI50 [3] was 1.69 µM and the TGI [3] was 3.48 µM. For the same compound, the GI50 [4] was 1.79 µM, the TGI [4] was 5.05 µM and the GI50 [5] was 1.71 µM. For the same compound, the TGI [5] was 3.33 µM, the GI50 [6] was 2.14 µM and the TGI [6] was 4.87 µM. The GI50 [7] was 2.18 µM, the TGI [7] was 5.35 µM and the GI50 [8] was 2.46 µM. It also gave a TGI [8] of 5.1 µM.
`CCCNC(=O)C1C(=O)C(=O)N(CCC)C1=O` (centres undefined) gave a TGI [1] greater than 100 µM, a TGI [9] greater than 100 µM and a TGI [2] greater than 100 µM. It also gave a TGI [4] greater than 100 µM, a TGI [6] greater than 100 µM and a TGI [7] greater than 100 µM. The TGI [8] was greater than 100 µM.
`CCOC(=O)C1=C(Nc2ccc(Cl)cc2Cl)OCC1=O` was tested, and the TGI [1] was greater than 100 µM, the TGI [2] was greater than 100 µM and the TGI [4] was greater than 100 µM. For the same compound, the TGI [5] was greater than 100 µM, the TGI [6] was greater than 100 µM and the TGI [7] was greater than 100 µM. For the same compound, the TGI [8] was greater than 100 µM.
In the case of `CCC(=O)c1c(NOC2OCC(OC(C)=O)C(OC(C)=O)C2OC(C)=O)nc(OC)n(C)c1=O` (centres undefined), the TGI [1] is reported as greater than 100 µM, the TGI [9] is reported as greater than 100 µM and the TGI [2] is reported as greater than 100 µM. For the same compound, the TGI [4] was greater than 100 µM, the TGI [5] was greater than 100 µM and the TGI [7] was greater than 100 µM. It also gave a TGI [8] greater than 100 µM.
Work on `N/N=C1\C(=O)N(C2CCCCCC2)C(=O)C1C(=O)NC1CCCCCC1` (centres undefined) yielded a TGI [1] greater than 100 µM, a TGI [9] of 80.8 µM and a TGI [2] greater than 100 µM. For the same compound, the TGI [4] was 55.7 µM, the TGI [5] was greater than 100 µM and the TGI [6] was 37.6 µM. For the same compound, the TGI [7] was 65.6 µM and the TGI [8] was greater than 10 µM.
`CCNC(=O)COc1ccc(Br)cc1Br` gave a TGI [1] greater than 100 µM, a TGI [9] greater than 100 µM and a TGI [2] greater than 100 µM. The TGI [4] was greater than 100 µM, the TGI [5] was greater than 100 µM and the TGI [6] was greater than 100 µM. It also gave a TGI [7] greater than 100 µM.
`O=C(/C=C/c1ccccc1)C(Br)C(Br)c1ccccc1` (centres undefined) gave a GI50 [1] of 2.79 µM, a TGI [1] of 9.3 µM and a GI50 [9] of 0.308 µM. For the same compound, the TGI [9] was 1.2 µM, the GI50 [2] was 2.02 µM and the TGI [2] was 4.9 µM. For the same compound, the GI50 [3] was 1.49 µM, the TGI [3] was 3.08 µM and the GI50 [4] was 0.602 µM. It also gave a TGI [4] of 3 µM, a GI50 [10] of 2.69 µM and a TGI [10] of 8.69 µM. It also gave a GI50 [5] of 2.95 µM, a TGI [5] of 10.5 µM and a GI50 [6] of 1.82 µM. For the same compound, the TGI [6] was 3.6 µM, the GI50 [7] was 2 µM and the TGI [7] was 4.65 µM.
`O=C(CCC(=O)Nc1ccc(Cl)c(Cl)c1)CC(=O)c1ccc(Br)cc1` gave a TGI [1] greater than 100 µM, a TGI [9] greater than 100 µM and a TGI [2] greater than 100 µM. The TGI [4] was greater than 100 µM, the TGI [6] was greater than 100 µM and the TGI [7] was greater than 100 µM. For the same compound, the TGI [8] was greater than 100 µM.
`CC(=O)N/N=C1\CC(C)(C)C2CCC1C2` (centres undefined) showed a TGI [1] greater than 100 µM, a TGI [9] greater than 100 µM and a TGI [2] greater than 100 µM. It also gave a TGI [4] greater than 100 µM, a TGI [5] greater than 100 µM and a TGI [6] greater than 100 µM. It also gave a TGI [7] greater than 100 µM and a TGI [8] greater than 100 µM.
In the case of `COc1cc(C2SCCCCCCCCCCSC(c3ccc(O)c(OC)c3)SCCCCCCCCCCS2)ccc1O` (centres undefined), the TGI [1] is reported as greater than 100 µM, the TGI [2] is reported as greater than 100 µM and the TGI [3] is reported as greater than 100 µM. The TGI [4] was greater than 100 µM, the TGI [10] was greater than 100 µM and the TGI [5] was greater than 100 µM. It also gave a TGI [6] greater than 100 µM, a TGI [7] greater than 100 µM and a TGI [8] greater than 100 µM.
`COC/C=C\COC` showed a TGI [1] greater than 100 µM, a TGI [9] greater than 100 µM and a TGI [2] greater than 100 µM. The TGI [4] was greater than 100 µM, the TGI [5] was greater than 100 µM and the TGI [6] was greater than 100 µM. The TGI [7] was greater than 100 µM and the TGI [8] was greater than 100 µM.
Compound `CC1=CC(=O)CC2(C)CC[C@@H]3C[C@]12OC3(C)C` (some centres undefined) has a TGI [1] greater than 100 µM, a TGI [9] greater than 100 µM and a TGI [2] greater than 100 µM. The TGI [4] was greater than 100 µM, the TGI [5] was greater than 100 µM and the TGI [6] was greater than 100 µM. It also gave a TGI [7] greater than 100 µM and a TGI [8] greater than 100 µM.
Compound `CCCCCCCCOC(=O)CC[C@@H](C)[C@H]1CC[C@H]2[C@@H]3[C@H](OC(=O)CCN)C[C@@H]4C[C@H](OC(=O)CCN)CC[C@]4(C)[C@H]3C[C@H](OC(=O)CCN)[C@]12C` has a GI50 [1] of 10.9 µM, a TGI [1] of 27.1 µM and a GI50 [2] of 4.61 µM. The TGI [2] was 22.9 µM, the GI50 [3] was 3.96 µM and the TGI [3] was 18.4 µM. For the same compound, the GI50 [10] was 7.17 µM, the TGI [10] was 22.4 µM and the GI50 [5] was 3.51 µM. It also gave a TGI [5] of 15.9 µM, a GI50 [6] of 4.88 µM and a TGI [6] of 18.7 µM. The GI50 [7] was 6.62 µM and the TGI [7] was 22.2 µM.
With `COc1ccc(S(=O)(=O)N2CCN(C(=O)c3ccc(-c4ccccc4)cc3)CC2C(=O)NO)cc1` (centres undefined) the GI50 [1] was 8.47 µM and 30.7 µM, the TGI [1] was 12.5 µM and 82.2 µM and the GI50 [9] was greater than 100 µM. For the same compound, the TGI [9] was greater than 100 µM, the GI50 [2] was 1.96 µM and the TGI [2] was 10 µM. The GI50 [4] was 15.9 µM, the TGI [4] was 95.9 µM and the GI50 [10] was 2.01 µM and 17.9 µM. The GI50 [5] was 3.85 µM and 25.7 µM, the TGI [5] was 12.5 µM and > 100 µM and the GI50 [7] was 2.16 µM and 16.2 µM. The GI50 [8] was 1.83 µM and 12.1 µM and the TGI [8] was 7.33 µM and 58.5 µM.
Work on `C#Cc1cccc(N2C(=O)c3c(c(-c4ccccc4)c(-c4ccc(Cc5ccc(-c6c(-c7ccccc7)c7c(c(-c8ccccc8)c6-c6ccccc6)C(=O)N(c6cccc(C#C)c6)C7=O)cc5)cc4)c(-c4ccccc4)c3-c3ccccc3)C2=O)c1` yielded a TGI [1] greater than 100 µM, a TGI [9] greater than 100 µM and a TGI [2] of 41.5 µM. The TGI [4] was greater than 100 µM, the TGI [5] was greater than 100 µM and the TGI [6] was greater than 100 µM. For the same compound, the TGI [7] was greater than 100 µM and the TGI [8] was 53.3 µM.
In the case of `C=C(CC(NC(=O)c1ccc(C(CC)Cc2cnc3nc(N)nc(N)c3n2)cc1)C(=O)O)C(=O)O` (centres undefined), the TGI [1] is reported as greater than 100 µM, the TGI [9] is reported as greater than 100 µM and the TGI [2] is reported as greater than 100 µM. The TGI [4] was greater than 100 µM, the GI50 [7] was 0.0205 µM and the TGI [7] was greater than 100 µM. For the same compound, the TGI [8] was greater than 100 µM.
With `CC1=C(C(=O)CC(=O)C(=O)Nc2cc(C)ccc2C)Sc2ccccc2N1` the TGI [1] was greater than 100 µM, the TGI [9] was greater than 100 µM and the TGI [2] was greater than 100 µM. It also gave a TGI [4] greater than 100 µM, a TGI [5] greater than 100 µM and a TGI [6] greater than 100 µM. It also gave a TGI [7] greater than 100 µM and a TGI [8] greater than 100 µM.
Compound `S=c1snc2n1CCN2` has a GI50 [1] greater than 100 µM, a TGI [1] greater than 100 µM and a GI50 [9] of 33.4 µM. The TGI [9] was greater than 100 µM, the GI50 [2] was greater than 100 µM and the TGI [2] was greater than 100 µM. It also gave a GI50 [3] greater than 100 µM, a TGI [3] greater than 100 µM and a GI50 [4] of 32.3 µM. The TGI [4] was greater than 100 µM, the GI50 [10] was 65.4 µM and the TGI [10] was greater than 100 µM. It also gave a GI50 [5] greater than 100 µM, a TGI [5] greater than 100 µM and a GI50 [7] of 10.6 µM. For the same compound, the TGI [7] was 86.8 µM, the GI50 [8] was greater than 100 µM and the TGI [8] was greater than 100 µM.
